According to patent publication US8575091B1, “Amylin analogues and pharmaceutical compositions thereof” (Novo Nordisk A/S, priority 2012, dated 2013):
Where two headings read alike, the source gives them in different places. Numbered stars: 1 amine (or outer) side, 2 acyl side, 3 side chain; on linkers, the order of the positions; unused ones are H or OH. Bridge positions count the residues as written; N and C are the ends. Side chains are listed from the residue outwards. Peptide text beside a SMILES is read from it. * marks the point of attachment. C20 diacid = O=C(O)CCCCCCCCCCCCCCCCCCC(=O)*; γGlu = O=C(O)[C@H](CCC(=O)[*:2])N[*:1]

Experiments:
[1] = target: T1, human amylin receptor (amylin 3(a) receptor: human calcitonin receptor + RAMP-3) (Homo sapiens, UniProt O60896+P30988); assay: Assay (II)a functional assay, human amylin receptor (CRE luciferase, BHK cells); assay type: cell-based; conditions: for EC50: read-out: hAmylin-R funct. EC50
T1 construct: expressed in transfected cells
T1 sequence (P30988 25-474): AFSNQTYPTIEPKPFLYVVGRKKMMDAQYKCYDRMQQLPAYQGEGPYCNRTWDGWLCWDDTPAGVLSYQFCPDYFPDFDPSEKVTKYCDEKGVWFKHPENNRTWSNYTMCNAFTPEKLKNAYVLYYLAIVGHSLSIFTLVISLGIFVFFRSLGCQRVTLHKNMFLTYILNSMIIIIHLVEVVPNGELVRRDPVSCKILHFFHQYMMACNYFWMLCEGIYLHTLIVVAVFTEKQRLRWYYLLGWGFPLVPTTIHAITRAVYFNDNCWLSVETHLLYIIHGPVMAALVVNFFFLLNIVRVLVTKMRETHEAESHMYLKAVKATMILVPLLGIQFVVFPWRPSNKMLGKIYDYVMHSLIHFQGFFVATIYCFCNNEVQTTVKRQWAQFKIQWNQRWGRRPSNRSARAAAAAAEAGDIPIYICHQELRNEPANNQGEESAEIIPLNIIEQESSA
T1 sequence (O60896 24-148 partner): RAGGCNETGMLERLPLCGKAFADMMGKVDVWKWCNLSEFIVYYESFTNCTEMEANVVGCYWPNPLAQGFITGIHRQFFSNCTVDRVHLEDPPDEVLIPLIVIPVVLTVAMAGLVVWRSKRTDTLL

[2] = target: T2, human calcitonin receptor (Homo sapiens, UniProt P30988); assay: Assay (II)a functional assay, human calcitonin receptor (CRE luciferase, BHK cells);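 further: luminescence from a CRE-driven luciferase reporter, read by single photon counting after cells were exposed to test samples for 3 h at 37 °C under 5% CO2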; assay type: cell-based; conditions: read-out: hCTR funct. EC50
T2 construct: expressed in transfected cells
T2 sequence (P30988 25-474): T1 sequence (P30988 25-474)

human amylin receptor = target: T3, human amylin receptor (Homo sapiens, UniProt O60896+P30988); assay: Assay (V) binding to the human amylin receptor (SPA, 125I-rat amylin); conditions: for IC50: human amylin receptor membranes, SPA, read-out: hAmylin-R bind IC50
T3 construct: expressed in transfected cells
T3 sequence (P30988 25-474): T1 sequence (P30988 25-474)
T3 sequence (O60896 24-148 partner): T1 sequence (O60896 24-148 partner)
Procedure, shortened: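 IC50, taken as receptor affinity, came from one-site binding competition analysis of scintillation proximity counts. Amylin 3(a)/CRE-luc cell membranes (35 ng/μL final) were mixed with SPA beads (0.05 mg/well) in 50 mM Hepes pH 7.4 containing CaCl2, MgCl2, 0.1% OA and 0.02% Tween20.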

[3] = target: T2, human calcitonin receptor; assay: Assay (VII) binding to the human calcitonin receptor (SPA, 125I-Calcitonin); conditions: read-out: hCTR bind IC50;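 further: cell membranes coupled to SPA beads, competitive displacement read by scintillation counting, IC50 derived from a one-site competition fit as a measure of receptor affinity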
[4] = Table 6, human functional selectivity (hCTR EC50 / hAmylin-R EC50)
[5] = Table 6a, human functional selectivity (hCTR EC50 / hAmylin-R EC50), at least 5
[6] = Table 6j, hCTR funct. EC50 / hAmylin-R funct. EC50
[7] = Table 6k, hCTR funct. EC50 / hAmylin-R funct. EC50
[8] = functional assay, human amylin receptor

| Structure (SMILES) | Ratio hCT/hAmylin funct. [1, 4] | Ratio hCT/hAmylin funct. [1, 5] | Ratio hCT/hAmylin funct. [1, 6] | EC50 ([1]; Table 6j, human amylin receptor functional) | Ratio hCT/hAmylin funct. [1, 7] | EC50 [2] | IC50 (human amylin receptor) | IC50 [3] | EC50 [1, 8] | Ratio hCT/hAmylin funct. ([1]; Table 6i, hCTR funct. EC50 / hAmylin-R funct. EC50) | EC50 ([1]; Table 6i, human amylin receptor functional) | Ratio hCT/hAmylin binding (human amylin receptor; Table 7b, human calcitonin receptor binding IC50 divided by human amylin receptor binding IC50) | Ratio hCT/hAmylin binding (human amylin receptor; human binding ratio, included for comparison) |
| --- | --- | --- | --- | --- | --- | --- | --- | --- | --- | --- | --- | --- | --- |
| CC[C@H](C)[C@H](NC(=O)[C@H](C)NC(=O)CNC(=O)[C@H](Cc1ccccc1)NC(=O)[C@H](CC(N)=O)NC(=O)[C@@H]1CCCN1C(=O)[C@H](CO)NC(=O)[C@H](CO)NC(=O)[C@H](Cc1c[nH]cn1)NC(=O)[C@H](CCCNC(=N)N)NC(=O)[C@H](CC(C)C)NC(=O)[C@H](Cc1ccccc1)NC(=O)[C@H](CCC(=O)O)NC(=O)[C@H](C)NC(=O)[C@H](CC(C)C)NC(=O)[C@H](CCCNC(=N)N)NC(=O)[C@H](CCC(N)=O)NC(=O)[C@@H](NC(=O)[C@H](C)NC(=O)[C@@H]1CSSC[C@H](NC(=O)[C@@H](N)CCCCNC(=O)CC[C@H](NC(=O)CC[C@H](NC(=O)CCCCCCCCCCCCCCCCCCC(=O)O)C(=O)O)C(=O)O)C(=O)N[C@@H](CC(N)=O)C(=O)N[C@@H]([C@@H](C)O)C(=O)N[C@@H](C)C(=O)N[C@@H]([C@@H](C)O)C(=O)N1)[C@@H](C)O)C(=O)N1CCC[C@H]1C(=O)N[C@@H](CO)C(=O)N[C@@H](CO)C(=O)N[C@H](C(=O)N[C@@H](CC(N)=O)C(=O)N[C@H](C(=O)NCC(=O)N[C@@H](Cc1c[nH]cn1)C(=O)N[C@@H](CCC(=O)O)C(=O)N[C@H](C(=O)N[C@@H](Cc1ccc(O)cc1)C(N)=O)[C@@H](C)O)C(C)C)[C@@H](C)O [Example 104] (H-K([γGlu-γGlu-C20 diacid])CNTATCATQRLAEFLRHSSPNFGAIPSSTNVGHETY-NH2; disulfide 2-7) | – | – | – | – | – | 7.05 nM | 0.525 nM | 15.2 nM | 0.445 nM | – | – | – | – |
| CC[C@H](C)[C@H](NC(=O)[C@H](C)NC(=O)CNC(=O)[C@H](Cc1ccccc1)NC(=O)[C@H](CC(N)=O)NC(=O)[C@@H]1CCCN1C(=O)[C@H](CO)NC(=O)[C@H](CO)NC(=O)[C@H](Cc1c[nH]cn1)NC(=O)[C@H](CCCNC(=N)N)NC(=O)[C@H](CC(C)C)NC(=O)[C@H](Cc1ccccc1)NC(=O)[C@H](CC(N)=O)NC(=O)[C@H](C)NC(=O)[C@H](CC(C)C)NC(=O)[C@H](CCCNC(=N)N)NC(=O)[C@H](CCC(N)=O)NC(=O)[C@@H](NC(=O)[C@H](C)NC(=O)[C@@H]1CSSC[C@H](NC(=O)[C@@H](N)CCCCNC(=O)CC[C@H](NC(=O)CCCCCCCCCCCCCCCCCCC(=O)O)C(=O)O)C(=O)N[C@@H](CC(N)=O)C(=O)N[C@@H]([C@@H](C)O)C(=O)N[C@@H](C)C(=O)N[C@@H]([C@@H](C)O)C(=O)N1)[C@@H](C)O)C(=O)N1CCC[C@H]1C(=O)N[C@@H](CO)C(=O)N[C@@H](CO)C(=O)N[C@H](C(=O)N[C@@H](CC(N)=O)C(=O)N[C@H](C(=O)NCC(=O)N[C@@H](CO)C(=O)N[C@@H](CCC(=O)O)C(=O)N[C@H](C(=O)N[C@@H](Cc1ccc(O)cc1)C(N)=O)[C@@H](C)O)C(C)C)[C@@H](C)O [Example 27] | – | – | – | – | – | 3 nM | 0.837 nM | 34.5 nM | 0.133 nM | – | – | – | – |

Further compounds by falling EC50 [2], results first:

| Ratio hCT/hAmylin funct. [1, 4] | Ratio hCT/hAmylin funct. [1, 5] | Ratio hCT/hAmylin funct. [1, 6] | EC50 ([1]; Table 6j, human amylin receptor functional) | Ratio hCT/hAmylin funct. [1, 7] | EC50 [2] | IC50 (human amylin receptor) | IC50 [3] | EC50 [1, 8] | Ratio hCT/hAmylin funct. ([1]; Table 6i, hCTR funct. EC50 / hAmylin-R funct. EC50) | EC50 ([1]; Table 6i, human amylin receptor functional) | Ratio hCT/hAmylin binding (human amylin receptor; Table 7b, human calcitonin receptor binding IC50 divided by human amylin receptor binding IC50) | Ratio hCT/hAmylin binding (human amylin receptor; human binding ratio, included for comparison) | Structure (SMILES) |
| --- | --- | --- | --- | --- | --- | --- | --- | --- | --- | --- | --- | --- | --- |
| – | – | – | – | – | 2.68 nM | 0.549 nM | 17.1 nM | 0.164 nM | – | – | – | – | CC[C@H](C)[C@H](NC(=O)[C@H](C)NC(=O)CNC(=O)[C@H](Cc1ccccc1)NC(=O)[C@H](CC(N)=O)NC(=O)[C@@H]1CCCN1C(=O)[C@H](CO)NC(=O)[C@H](CO)NC(=O)[C@H](Cc1c[nH]cn1)NC(=O)[C@H](CCCNC(=N)N)NC(=O)[C@H](CC(C)C)NC(=O)[C@H](Cc1ccccc1)NC(=O)[C@H](CC(N)=O)NC(=O)[C@H](C)NC(=O)[C@H](CC(C)C)NC(=O)[C@H](CCCNC(=N)N)NC(=O)[C@H](CCC(N)=O)NC(=O)[C@@H](NC(=O)[C@H](C)NC(=O)[C@@H]1CSSC[C@H](NC(=O)[C@H](CCCCN)NC(=O)CC[C@H](NC(=O)CCCCCCCCCCCCCCCCCCC(=O)O)C(=O)O)C(=O)N[C@@H](CC(N)=O)C(=O)N[C@@H]([C@@H](C)O)C(=O)N[C@@H](C)C(=O)N[C@@H]([C@@H](C)O)C(=O)N1)[C@@H](C)O)C(=O)N1CCC[C@H]1C(=O)N[C@@H](CO)C(=O)N[C@@H](CO)C(=O)N[C@H](C(=O)N[C@@H](CC(N)=O)C(=O)N[C@H](C(=O)NCC(=O)N[C@@H](Cc1c[nH]cn1)C(=O)N[C@@H](CC(N)=O)C(=O)N[C@H](C(=O)N[C@@H](Cc1ccc(O)cc1)C(N)=O)[C@@H](C)O)C(C)C)[C@@H](C)O [Example 40] |
| 6.4 | 6.4 | 6.4 | – | 6.4 | 0.717 nM | 0.204 nM | 3.26 nM | – | 6.4 | 0.112 nM | 16.0 | 16.0 | CC[C@H](C)[C@H](NC(=O)[C@H](C)NC(=O)CNC(=O)[C@H](Cc1ccccc1)NC(=O)[C@H](CC(N)=O)NC(=O)[C@@H]1CCCN1C(=O)[C@H](CO)NC(=O)[C@H](CO)NC(=O)[C@H](Cc1c[nH]cn1)NC(=O)[C@H](CCCNC(=N)N)NC(=O)[C@H](CC(C)C)NC(=O)[C@H](Cc1ccccc1)NC(=O)[C@H](CCC(=O)O)NC(=O)[C@H](C)NC(=O)[C@H](CC(C)C)NC(=O)[C@H](CCCNC(=N)N)NC(=O)[C@H](CCC(N)=O)NC(=O)[C@@H](NC(=O)[C@H](C)NC(=O)[C@@H]1CSSC[C@H](NC(=O)[C@H](CCCCN)NC(=O)CC[C@H](NC(=O)CCCCCCCCCCCCCCCCCCC(=O)O)C(=O)O)C(=O)N[C@@H](CC(N)=O)C(=O)N[C@@H]([C@@H](C)O)C(=O)N[C@@H](C)C(=O)N[C@@H]([C@@H](C)O)C(=O)N1)[C@@H](C)O)C(=O)N1CCC[C@H]1C(=O)N[C@@H](CO)C(=O)N[C@@H](CO)C(=O)N[C@H](C(=O)N1CCC[C@H]1C(=O)N[C@H](C(=O)NCC(=O)N[C@@H](CO)C(=O)N[C@@H](CC(N)=O)C(=O)N[C@H](C(=O)N[C@@H](Cc1ccc(O)cc1)C(N)=O)[C@@H](C)O)C(C)C)[C@@H](C)O [Example 31] ({C20 diacid-γGlu}-KCNTATCATQRLAEFLRHSSPNFGAIPSSTPVGSNTY-NH2; disulfide 2-7) |
| 5.2 | 5.2 | 5.2 | 0.069 nM | 5.2 | 0.354 nM | 0.09 nM | 4.63 nM | – | – | – | – | – | CC[C@H](C)[C@H](NC(=O)[C@H](C)NC(=O)CNC(=O)[C@H](Cc1ccccc1)NC(=O)[C@H](CC(N)=O)NC(=O)[C@@H]1CCCN1C(=O)[C@H](CO)NC(=O)[C@H](CO)NC(=O)[C@H](Cc1c[nH]cn1)NC(=O)[C@H](CCCNC(=N)N)NC(=O)[C@H](CC(C)C)NC(=O)[C@H](Cc1ccccc1)NC(=O)[C@H](Cc1c[nH]cn1)NC(=O)[C@H](C)NC(=O)[C@H](CC(C)C)NC(=O)[C@H](CCCNC(=N)N)NC(=O)[C@H](CCC(N)=O)NC(=O)[C@@H](NC(=O)[C@H](C)NC(=O)[C@@H]1CSSC[C@H](NC(=O)[C@@H](N)CCCCNC(=O)CC[C@H](NC(=O)CCCCCCCCCCCCCCCCCCC(=O)O)C(=O)O)C(=O)N[C@@H](CC(N)=O)C(=O)N[C@@H]([C@@H](C)O)C(=O)N[C@@H](C)C(=O)N[C@@H]([C@@H](C)O)C(=O)N1)[C@@H](C)O)C(=O)N1CCC[C@H]1C(=O)N[C@@H](CO)C(=O)N[C@@H](CO)C(=O)N[C@H](C(=O)N[C@@H](CC(N)=O)C(=O)N[C@H](C(=O)NCC(=O)N1CCC[C@H]1C(=O)N[C@@H](CC(N)=O)C(=O)N[C@H](C(=O)N[C@@H](Cc1ccc(O)cc1)C(N)=O)[C@@H](C)O)C(C)C)[C@@H](C)O [Example 67] (H-K([γGlu-C20 diacid])CNTATCATQRLAHFLRHSSPNFGAIPSSTNVGPNTY-NH2; disulfide 2-7) |
